We go through two molecules from patent US20230230249A1, “DIGITAL ANTIMICROBIAL SUSCEPTIBILITY TESTING” (ARIZONA BOARD OF REGENTS ON BEHALF OF ARIZONA STATE …, priority 2020, published 2023).

This assay deals with E. coli ATCC 25922. The assay is described as follows: Digital AST by LVSi single-cell division tracking, pure E. coli samples. Particulars: for bacterial cell growth (normalized cumulative division events) versus control: different batches of E. coli; for average counting number of cell spots during 5-min video: 37° C., stationary phase cells. It is filed as cell-based. The protocol:
E. coli ATCC 25922 were purchased from American Type Culture Collection (ATCC) and stored at −80° C. in 5% glycerol. Antibiotics, including ciprofloxacin and ampicillin were purchased from Sigma-Aldrich. The antibiotic powders were stored in the dark at 2 to 8° C. Frozen E. coli strains were thawed, and 50 μL of the cells were cultured in 5 mL of Luria-Bertani (LB) medium (per liter: 10 g peptone 140, 5 g yeast extract, and 5 g sodium chloride) at 37° C. and 150 rpm for 15 h. Then the overnight cultured E. coli was inoculated into LB broth directly. After dilution to appropriate cell concentrations, antibiotics were added to the E. coli suspensions.
The dual channel LVSi system depicted in FIG. 1A was used, with two 800 mW, 780 nm infrared (IR) LEDs (M780LP1, Thorlabs, Inc., USA), each with collimating and focusing lenses and a central blocking aperture to focus a ring-shaped illumination through the sample or the reference cuvettes. Wide-view and deep field depth scattering images were recorded by two CMOS cameras (BFS-U3-16S2M-CS, Point Grey Research Inc., Canada) at 10 fps through two 2×variable zoom lens (NAVITAR 12×, Navitar, USA), for the sample and reference cuvettes, respectively. The image volume was determined by the viewing size and focal depth of the optics. For these experiments, the viewing area of 2.5 mm×1.9 mm×1.0 mm was equivalent to 4.8 μL at 2.0× magnifying power. The imaging system was enclosed in a thermally isolated housing with a controlled temperature (37° C.).
Individual cells recorded by LVSi are resolved as bright spots. Before division tracking, each spot was detected with a Laplacian of Gaussian (LoG) filter with defined radius and threshold. Then, the spots from adjacent time frames were connected with a Karman filter for directional linking. So each bright spot became a single-cell trajectory. To track the division events, the newly appeared cell trajectories (those from the image edges excluded) were first filtered out as the child trajectory candidates, and for each child trajectory candidate, the nearby old trajectories (appeared before the child trajectory candidate) were checked. If there was a close-by old trajectory split at the start time of the child trajectory candidate, a potential division event was tracked. To filter out the merge/crossing induced splitting, the spots merging events were also checked and were filtered out from the potential division events. Finally, an intensity filter was used to evaluate the remaining division events, ensuring the parent cell intensity is about the summation of the two divided child ones, and the two child ones are similar in size.
To validate that the tracked division events were due to real cell growth, rather than an artifact of the particle merging or crossing, a division over-counting calibration test was designed. To rule out the real division events, the E. coli cells were heated at ˜65° C. for 15 min. Then, each 5-min video of the heated E. coli cells with different concentrations (2.0×10^4˜2.0×10^5 CFU/mL, corresponding to 100-1000 spots in image view) were analyzed for single-cell division tracking. Each concentration test was repeated three times. Then, the division over-counting calibration curve was extracted from the tracking results. The division over-counting is less an issue when the cell number is below 500, corresponding to the bacterial concentration of about 1.0×10^5 CFU/mL. When the cell number is above 500, some miss-counting of division events occurred. To rule out the cell density induced division over-counting, the final division events in all clinical samples were calibrated by subtracting the cell density associated over counted division events.
The statistical error of the division tracking was estimated by the mentioned division over-counting calibration. […]

Take `O=C(O)c1cn(C2CC2)c2cc(N3CCNCC3)c(F)cc2c1=O` [ciprofloxacin]: for the setting “2 μg/mL ciprofloxacin, 60 min (FIG. 4F)”, the “cumulative division events growth curve compared with control” value was “no obvious increases in the growth curve”. For the same molecule, the “bacterial cell growth (normalized cumulative division events) versus control” value (2 μg/mL ciprofloxacin, 60 min (FIG. 5A, 5B)) was “clear inhibition in bacterial cell growth”. The “average counting number of cell spots during 5-min video” value is 118±8 (2 μg/mL ciprofloxacin, snapshot at 5 min); 114±5 (2 μg/mL ciprofloxacin, snapshot at 30 min); 106±4 (2 μg/mL ciprofloxacin, snapshot at 60 min).
With `CC1(C)S[C@@H]2[C@H](NC(=O)[C@H](N)c3ccccc3)C(=O)N2[C@H]1C(=O)O` [ampicillin], for the setting “16 μg/mL ampicillin, 60 min (FIG. 5C, 5D)”, the “bacterial cell growth (normalized cumulative division events) versus control” value is given as “clear inhibition in bacterial cell growth”.
